Legend:
[1] = Antiproliferative activity against human MKN45 cells assessed as inhibition of cell growth after 72 hrs by methylene blue dye assay; assay type: functional, cell-based; conditions: MKN-45, 72 h
Tubulin [2] = molecular target: T1, Tubulin (UniProt P68371+Q9H4B7+P0DPH7+P68366+Q13509+Q71U36+P04350+Q3ZCM7+P07437+P68363+Q9BQE3+Q6PEY2+Q13885+Q9BVA1+Q9BUF5); experiment: Displacement of [3H]colchicine from long-chain biotin-labeled tubulin (unknown origin) at 1 uM after 2 hrs by competition binding scintillation proximity assay; assay type: protein-complex assay; conditions: Homo sapiens
Tubulin [3] = molecular target: T1, Tubulin; experiment: Displacement of [3H]colchicine from long-chain biotin-labeled tubulin (unknown origin) at 5 uM after 2 hrs by competition binding scintillation proximity assay; assay type: protein-complex assay; conditions: Homo sapiens
Tubulin [4] = molecular target: Tubulin (Bos taurus, UniProt Q6B856+Q862L2+Q862F3); experiment: Inhibition of bovine brain microtubule-associated protein rich tubulin polymerization by turbidimetric assay
[5] = Antiproliferative activity against human KB-VIN10 cells overexpressing P-gp 170/MDR assessed as inhibition of cell growth after 72 hrs by methylene blue dye assay; assay type: functional, cell-based; conditions: KB-VIN10, 72 h
[6] = Antiproliferative activity against human H460 cells assessed as inhibition of cell growth after 72 hrs by methylene blue dye assay; assay type: functional, cell-based; conditions: NCI-H460, 72 h
HT-29 = experiment: Antiproliferative activity against human HT-29 cells assessed as inhibition of cell growth after 72 hrs by methylene blue dye assay; assay type: functional, cell-based; conditions: HT-29, 72 h
KB = experiment: Antiproliferative activity against human KB cells assessed as inhibition of cell growth after 72 hrs by methylene blue dye assay; assay type: functional, cell-based

Row | Structure (SMILES) | inhibition (Tubulin [2]) [%] | inhibition (Tubulin [3]) [%] | IC50 (Tubulin [4]) [nM] | IC50 (HT-29) [nM] | IC50 (KB) [nM] | IC50 [1] [nM] | IC50 [5] [nM] | IC50 [6] [nM]
1 | COc1ccc(-c2cccc3c2N(S(=O)(=O)c2ccc(OC)cc2)CC3)cc1 | – | – | – | 277 | 337 | 211 | 352 | 302
2 | COc1ccc(S(=O)(=O)N2CCc3cccc(-c4ccncc4)c32)cc1 | 54 | 72 | 2200 | 87.5 | 96 | 69.5 | 106 | 101
3 | COc1ccc(S(=O)(=O)N2CCc3cccc(-c4cccc(F)c4)c32)cc1 | – | – | – | 119 | 98.5 | 84.7 | 92.4 | 166
4 | COc1cc2c(c(OC)c1OC)-c1ccc(OC)c(=O)cc1[C@@H](NC(C)=O)CC2 [COLCHICINE] | – | – | – | – | – | – | 121 | –
5 | COc1ccc(S(=O)(=O)N2CCc3cccc(-c4ccco4)c32)cc1 | 43 | 68 | 2600 | 62.5 | 82 | 42 | 79.2 | 94.5
6 | COc1ccc(S(=O)(=O)N2CCc3cccc(-c4ccc(C#N)cc4)c32)cc1 | 81 | 92 | 1500 | 24.2 | 31.1 | 17.2 | 29.2 | 29.5
7 | COc1ccc(S(=O)(=O)N2CCc3cccc(-c4ccc(N(C)C)cc4)c32)cc1 | – | – | – | 467 | 538 | 237 | 553 | 556
8 | COc1ccc(S(=O)(=O)N2CCc3cccc(-c4ccc(F)nc4)c32)cc1 | – | – | – | 108 | 143 | 145 | 151 | 135
9 | COc1ccc(S(=O)(=O)N2CCc3cccc(-c4ccc(N)cc4)c32)cc1 | – | – | – | 300 | 249 | 162 | 262 | 288
10 | COc1ccc(S(=O)(=O)N2CCc3cccc(-c4ccc([N+](=O)[O-])cc4)c32)cc1 | 56 | 74 | 1700 | 51.8 | 52.5 | 34 | 51.3 | 53.1

More lines, in order of falling IC50 (HT-29), values ahead:

Row | inhibition (Tubulin [2]) [%] | inhibition (Tubulin [3]) [%] | IC50 (Tubulin [4]) [nM] | IC50 (HT-29) [nM] | IC50 (KB) [nM] | Structure (SMILES) | IC50 [1] [nM] | IC50 [5] [nM] | IC50 [6] [nM]
11 | – | – | – | 5100 | 3690 | COc1ccc(S(=O)(=O)N2CCc3cccc(-c4cc(OC)c(OC)c(OC)c4)c32)cc1 | 1080 | 4670 | 6340
12 | – | – | – | 3900 | 4040 | COc1ccc(S(=O)(=O)N2CCc3cccc(-c4c(F)c(F)c(F)c(F)c4F)c32)cc1 | 1780 | 4630 | 4760
13 | – | – | – | 200 | 214 | COc1ccc(S(=O)(=O)N2CCc3cccc(-c4cccs4)c32)cc1 | 165 | 251 | 229
14 | – | – | – | 133 | 129 | COc1ccc(S(=O)(=O)N2CCc3cccc(-c4ccc(O)cc4)c32)cc1 | 82.6 | 123 | 114
15 | – | – | – | 96.5 | 120 | COc1ccc(S(=O)(=O)N2CCc3cccc(-c4ccccc4)c32)cc1 | 117 | 107 | 212
16 | 59 | 73 | 2500 | 85.5 | 86 | COc1ccc(S(=O)(=O)N2CCc3cccc(-c4ccc(F)cc4)c32)cc1 | 79 | 94.6 | 95.5
17 | – | – | – | 76.3 | 95.9 | COc1ccc(S(=O)(=O)N2CCc3cccc(-c4cccnc4)c32)cc1 | 68.5 | 84.5 | 89.6
18 | 52 | 72 | 2300 | 57 | 45 | COc1ccc(S(=O)(=O)N2CCc3cccc(-c4ccc(F)c(F)c4)c32)cc1 | 55.5 | 46 | 46

From ChEMBL document CHEMBL3217693, “Synthesis and biological evaluation of 7-arylindoline-1-benzenesulfonamides as a novel class of potent anticancer agents” (Medchemcomm, 2010)
